Reference: patent US20170348306A1, “METHODS OF TREATING CANCER” (GLAXOSMITHKLINE LLC, priority 2011, published 2017)

Legend:
Assay in all cases: 6 day proliferation assay (assay 1)
Assay type in all cases: cell-based
[1] = test system: 1A2; conditions: Homo sapiens, 144 h, 6 days, EZH2 WT, read-out: Compound A gIC50
Procedure: (§1) Cells were cultured in appropriate medium in flasks to 80-100% confluency. Cells were harvested, counted and plated at a pre-determined optimal seeding density ranging from 50 cells per well to 4000 cells per well depending on the growth characteristics of individual cell lines in 384-well tissue culture plates (Greiner #781090). Plates were then incubated overnight at 37° C., 5% CO2. Cells were treated with compound using a 20 point 1:2 fold dilution scheme with a final concentration of 0.15% DMSO. One column per plate contained cells treated with 0.15% DMSO only, and one column contained no cells to serve as background. Plates were incubated at 37° C., 5% CO2 for 6 days. A time zero (t0) reading was taken on the day of compound addition. To develop the plates, 25 μL of Cell Titer Glo (Promega #G7572) was added to each well and incubated at room temperature for 12 minutes. Luminescence was measured on the Tecan Safire2.
(§2) Data were analyzed using Assay Client software. Dose response curves were generated based on percent of growth compared to t0. Growth IC50 values were calculated using a 4 parameter logistic model.
(§3) In addition, further optimization of the EZH2 inhibition assay

[2] = test system: BC-1; conditions: Homo sapiens, BC1, 144 h, 6 days, EZH2 WT, read-out: Compound A gIC50
Procedure: as §1, §2, §3

[3] = test system: BC-2; conditions: Homo sapiens, 144 h, 6 days, EZH2 WT, read-out: Compound A gIC50
Procedure: as §1, §2, §3

[4] = test system: BC-3; conditions: Homo sapiens, 144 h, 6 days, EZH2 WT, read-out: Compound A gIC50
Procedure: as §1, §2, §3

[5] = test system: CA46; conditions: Homo sapiens, 144 h, 6 days, EZH2 WT, read-out: Compound A gIC50
Procedure: as §1, §2, §3

[6] = test system: CROAP2; conditions: Homo sapiens, CRO-AP2, 144 h, 6 days, EZH2 WT, read-out: Compound A gIC50
Procedure: as §1, §2, §3

[7] = test system: CROAP5; conditions: Homo sapiens, CRO-AP5, 144 h, 6 days, EZH2 WT, read-out: Compound A gIC50
Procedure: as §1, §2, §3

[8] = test system: DB; conditions: Homo sapiens, 144 h, 6 days, EZH2 Y641N, read-out: Compound A gIC50
Procedure: as §1, §2, §3

[9] = test system: DG75; conditions: Homo sapiens, DG-75, 144 h, 6 days, EZH2 WT, read-out: Compound A gIC50
Procedure: as §1, §2, §3

[10] = test system: DOHH2; conditions: Homo sapiens, DOHH-2, 144 h, 6 days, EZH2 WT, read-out: Compound A gIC50
Procedure: as §1, §2, §3

[11] = test system: Daudi; conditions: Homo sapiens, 144 h, 6 days, EZH2 WT, read-out: Compound A gIC50
Procedure: as §1, §2, §3

[12] = test system: Farage; conditions: Homo sapiens, 144 h, 6 days, EZH2 WT, read-out: Compound A gIC50
Procedure: as §1, §2, §3

[13] = test system: HDMyZ; conditions: Homo sapiens, 144 h, 6 days, EZH2 WT, read-out: Compound A gIC50
Procedure: as §1, §2, §3

[14] = test system: HT; conditions: Homo sapiens, 144 h, 6 days, EZH2 WT, read-out: Compound A gIC50
Procedure: as §1, §2, §3

[15] = test system: Hs445; conditions: Homo sapiens, Hs 445, 144 h, 6 days, EZH2 WT, read-out: Compound A gIC50
Procedure: as §1, §2, §3

[16] = test system: HsSullan; conditions: Homo sapiens, 144 h, 6 days, EZH2 WT, read-out: Compound A gIC50
Procedure: as §1, §2, §3

[17] = test system: JM1; conditions: Homo sapiens, 144 h, 6 days, EZH2 WT, read-out: Compound A gIC50
Procedure: as §1, §2, §3

[18] = test system: Jiyoye; conditions: Homo sapiens, 144 h, 6 days, EZH2 WT, read-out: Compound A gIC50
Procedure: as §1, §2, §3

[19] = test system: Karpass422; conditions: Homo sapiens, 144 h, 6 days, EZH2 Y641N, read-out: Compound A gIC50
Procedure: as §1, §2, §3

[20] = test system: L428; conditions: Homo sapiens, L-428, 144 h, 6 days, EZH2 Y641S, read-out: Compound A gIC50
Procedure: as §1, §2, §3

[21] = test system: MJ; conditions: Homo sapiens, 144 h, 6 days, EZH2 WT, read-out: Compound A gIC50
Procedure: as §1, §2, §3

[22] = test system: NAMALWA; conditions: Homo sapiens, 144 h, 6 days, EZH2 WT, read-out: Compound A gIC50
Procedure: as §1, §2, §3

[23] = test system: OCI-LY-19; conditions: Homo sapiens, OCI-LY19, 144 h, 6 days, EZH2 Y641N, read-out: Compound A gIC50
Procedure: as §1, §2, §3

[24] = test system: P3HR1; conditions: Homo sapiens, P3HR-1, 144 h, 6 days, EZH2 WT, read-out: Compound A gIC50
Procedure: as §1, §2, §3

[25] = test system: Pfeiffer; conditions: Homo sapiens, 144 h, 6 days, EZH2 A677G, read-out: Compound A gIC50
Procedure: as §1, §2, §3

[26] = test system: RCK8; conditions: Homo sapiens, 144 h, 6 days, EZH2 WT, read-out: Compound A gIC50
Procedure: as §1, §2, §3

[27] = test system: REC1; conditions: Homo sapiens, 144 h, 6 days, EZH2 WT, read-out: Compound A gIC50
Procedure: as §1, §2, §3

[28] = test system: RL; conditions: Homo sapiens, 144 h, 6 days, EZH2 Y641N, read-out: Compound A gIC50
Procedure: as §1, §2, §3

[29] = test system: RPMI-6666; conditions: Homo sapiens, 144 h, 6 days, EZH2 WT, read-out: Compound A gIC50
Procedure: as §1, §2, §3

[30] = test system: Raji; conditions: Homo sapiens, 144 h, 6 days, EZH2 WT, read-out: Compound A gIC50
Procedure: as §1, §2, §3

[31] = test system: Ramos; conditions: Homo sapiens, 144 h, 6 days, EZH2 WT, read-out: Compound A gIC50
Procedure: as §1, §2, §3

[32] = test system: SKM1; conditions: Homo sapiens, SKM-1, 144 h, 6 days, EZH2 Y641C, read-out: Compound A gIC50
Procedure: as §1, §2, §3

[33] = test system: SU-DHL-10; conditions: Homo sapiens, SU-DHL10, 144 h, 6 days, EZH2 Y641F, read-out: Compound A gIC50
Procedure: as §1, §2, §3

[34] = test system: SU-DHL-4; conditions: Homo sapiens, 144 h, 6 days, EZH2 Y641S, read-out: Compound A gIC50
Procedure: as §1, §2, §3

[35] = test system: SU-DHL-5; conditions: Homo sapiens, 144 h, 6 days, EZH2 WT, read-out: Compound A gIC50
Procedure: as §1, §2, §3

[36] = test system: Toledo; conditions: Homo sapiens, 144 h, 6 days, EZH2 WT, read-out: Compound A gIC50
Procedure: as §1, §2, §3

[37] = test system: U937; conditions: Homo sapiens, U-937, 144 h, 6 days, EZH2 WT, read-out: Compound A gIC50
Procedure: as §1, §2, §3

[38] = test system: WSU-DLCL-2; conditions: Homo sapiens, WSUDLCL2, 144 h, 6 days, EZH2 Y641F, read-out: Compound A gIC50
Procedure: as §1, §2, §3

`CCCc1cc(C)[nH]c(=O)c1CNC(=O)c1cc(-c2ccc(N3CCN(C)CC3)nc2)cc2c1cnn2C(C)C` [Compound A, 1-(1-methylethyl)-N-[(6-methyl-2-oxo-4-propyl-1,2-dihydro-3-pyridinyl)methyl]-6-[6-(4-methyl-1-piperazinyl)-3-pyridinyl]-1H-indazole-4-carboxamide] gave an IC50 [1] of 9.26 µM, an IC50 [2] of 8.82 µM and an IC50 [3] of 2.18 µM. The IC50 [4] was 5.28 µM, the IC50 [5] was 8.63 µM and the IC50 [6] was 11.3 µM. The IC50 [7] was 6.16 µM, the IC50 [8] was 9.5 µM and the IC50 [9] was 6.23 µM. For the same compound, the IC50 [10] was 6.43 µM, the IC50 [11] was 13.4 µM and the IC50 [12] was 4.79 µM. The IC50 [13] was 7.21 µM, the IC50 [14] was 3.71 µM and the IC50 [15] was 1.57 µM. For the same compound, the IC50 [16] was 3.94 µM, the IC50 [17] was 6.66 µM and the IC50 [18] was 2.47 µM. The IC50 [19] was 1.32 µM, the IC50 [20] was 3.1 µM and the IC50 [21] was 3.28 µM. For the same compound, the IC50 [22] was 6.22 µM, the IC50 [23] was 4.48 µM and the IC50 [24] was 7.8 µM. For the same compound, the IC50 [25] was 0.189 µM, the IC50 [26] was 5.56 µM and the IC50 [27] was 2.91 µM. The IC50 [28] was 4.66 µM, the IC50 [29] was 3.1 µM and the IC50 [30] was 6.14 µM. It also gave an IC50 [31] of 3.51 µM, an IC50 [32] of 6.16 µM and an IC50 [33] of 0.324 µM. For the same compound, the IC50 [34] was 14 µM, the IC50 [35] was 3.44 µM and the IC50 [36] was 21.8 µM. For the same compound, the IC50 [37] was 7.9 µM and the IC50 [38] was 3.1 µM.
